# Measurements reported in EP2970215B1, “PYRROLIDINE DERIVATIVES, PHARMACEUTICAL COMPOSITIONS CONTAINING THEM, AND THEIR USE IN THERAPY” (AbbVie Deutschland GmbH & Co. KG, priority 2013, dated 2014).
# Biological target: T1, human GlyT1c transporter (Homo sapiens, UniProt P48067)
# T1 construct: expressed in transfected cells; host or cells: CHO cells (recombinant; line hGlyT1c_5_CHO is named for the uptake assay)
# T1 sequence (P48067 1-706): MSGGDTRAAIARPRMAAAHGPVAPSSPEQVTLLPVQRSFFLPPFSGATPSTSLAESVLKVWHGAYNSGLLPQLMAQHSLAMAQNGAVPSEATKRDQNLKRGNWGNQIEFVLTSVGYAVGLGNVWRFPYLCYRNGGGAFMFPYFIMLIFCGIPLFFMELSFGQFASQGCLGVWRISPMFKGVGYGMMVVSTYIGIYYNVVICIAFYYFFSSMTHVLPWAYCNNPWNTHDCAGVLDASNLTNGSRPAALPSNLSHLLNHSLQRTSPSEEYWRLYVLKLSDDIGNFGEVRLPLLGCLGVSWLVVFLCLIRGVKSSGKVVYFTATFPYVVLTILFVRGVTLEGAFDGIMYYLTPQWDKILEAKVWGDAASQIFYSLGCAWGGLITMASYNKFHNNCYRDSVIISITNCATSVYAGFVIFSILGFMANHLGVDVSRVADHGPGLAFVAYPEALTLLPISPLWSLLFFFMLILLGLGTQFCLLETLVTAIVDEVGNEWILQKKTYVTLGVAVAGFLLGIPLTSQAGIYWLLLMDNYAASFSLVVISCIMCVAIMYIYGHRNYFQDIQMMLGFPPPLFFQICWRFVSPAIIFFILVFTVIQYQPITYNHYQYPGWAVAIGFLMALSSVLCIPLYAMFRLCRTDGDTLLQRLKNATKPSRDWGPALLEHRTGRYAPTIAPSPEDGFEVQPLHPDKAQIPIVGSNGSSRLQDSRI
# Assay: Radioligand binding assay using recombinant CHO cell membranes expressing human GlyT1
# Settings: radioligand binding to human GlyT1c transporter-expressing membranes
# Description: 2. Radioligand binding assays using recombinant CHO cell membranes expressing human GlyT1: […]
row,Structure (SMILES),Ki [µM]
1,"Cn1cnc(S(=O)(=O)N2C[C@H](NCCO[Si](C)(C)C(C)(C)C)[C@@H](c3ccccc3)C2)c1 [Example 551, (3R,4S)-N-(2-{[tert-butyl(dimethyl)silyl]oxy}ethyl)-1-[(1-methyl-1H-imidazol-4-yl)sulfonyl]-4-phenylpyrrolidin-3-amine]",≤ 10
2,Cn1cnc(S(=O)(=O)N2C[C@H](NCc3cccc(C(F)(F)F)n3)[C@@H](c3ccccc3)C2)c1 [Example 552],≤ 10
3,"Cn1cnc(S(=O)(=O)N2C[C@H](NCc3sccc3Cl)[C@@H](c3ccccc3)C2)c1 [Example 553, (3R,4S)-N-[(3-chlorothiophen-2-yl)methyl]-1-[(1-methyl-1H-imidazol-4-yl)sulfonyl]-4-phenylpyrrolidin-3-amine]",≤ 1
4,"Cn1cnc(S(=O)(=O)N2C[C@H](NCC3CCC(F)(F)CC3)[C@@H](c3ccccc3)C2)c1 [Example 554, (3R,4S)-N-[(4,4-difluorocyclohexyl)methyl]-1-[(1-methyl-1H-imidazol-4-yl)sulfonyl]-4-phenylpyrrolidin-3-amine]",≤ 1
5,"Cn1cnc(S(=O)(=O)N2C[C@H](NCc3cccc4ccnn34)[C@@H](c3ccccc3)C2)c1 [Example 555, (3R,4S)-1-[(1-methyl-1H-imidazol-4-yl)sulfonyl]-4-phenyl-N-(pyrazolo[1,5-a]pyridin-7-ylmethyl)pyrrolidin-3-amine]",≤ 10
6,"CC(C)c1csc(CN[C@H]2CN(S(=O)(=O)c3cn(C)cn3)C[C@@H]2c2ccccc2)n1 [Example 556, (3R,4S)-1-[(1-methyl-1H-imidazol-4-yl)sulfonyl]-4-phenyl-N-{[4-(propan-2-yl)-1,3-thiazol-2-yl]methyl}pyrrolidin-3-amine]",≤ 10
7,"Cn1cnc(S(=O)(=O)N2C[C@H](NCc3ccc(C4CCCCO4)s3)[C@@H](c3ccccc3)C2)c1 (stereo partly drawn) [Example 558, (3R,4S)-1-[(1-methyl-1H-imidazol-4-yl)sulfonyl]-4-phenyl-N-{[5-(tetrahydro-2H-pyran-2-yl)thiophen-2-yl]methyl}pyrrolidin-3-amine]",≤ 10
8,"CCC(C)C(C)CN[C@H]1CN(S(=O)(=O)c2cn(C)cn2)C[C@@H]1c1ccccc1 (stereo partly drawn) [Example 561, (3R,4S)-N-(2,3-dimethylpentyl)-1-[(1-methyl-1H-imidazol-4-yl)sulfonyl]-4-phenylpyrrolidin-3-amine]",≤ 1
9,"Cn1cnc(S(=O)(=O)N2C[C@H](NCC3CC3c3ccccc3)[C@@H](c3ccccc3)C2)c1 (stereo partly drawn) [Example 564, (3R,4S)-1-[(1-methyl-1H-imidazol-4-yl)sulfonyl]-4-phenyl-N-[(2-phenylcyclopropyl)methyl]pyrrolidin-3-amine]",≤ 1
10,"Cn1cnc(S(=O)(=O)N2C[C@H](NCc3scnc3Cl)[C@@H](c3ccccc3)C2)c1 [Example 565, (3R,4S)-N-[(4-chloro-1,3-thiazol-5-yl)methyl]-1-[(1-methyl-1H-imidazol-4-yl)sulfonyl]-4-phenylpyrrolidin-3-amine]",≤ 10
11,"CC(CN[C@H]1CN(S(=O)(=O)c2cn(C)cn2)C[C@@H]1c1ccccc1)C(F)(F)F (stereo partly drawn) [Example 566, (3R,4S)-1-[(1-methyl-1H-imidazol-4-yl)sulfonyl]-4-phenyl-N-(3,3,3-trifluoro-2-methylpropyl)pyrrolidin-3-amine]",≤ 10
12,"Cn1cnc(S(=O)(=O)N2C[C@H](NCc3ccnc(Cl)c3F)[C@@H](c3ccccc3)C2)c1 [Example 567, (3R,4S)-N-[(2-chloro-3-fluoropyridin-4-yl)methyl]-1-[(1-methyl-1H-imidazol-4-yl)sulfonyl]-4-phenylpyrrolidin-3-amine]",≤ 1
13,"Cn1cnc(S(=O)(=O)N2C[C@H](NCc3cc4cc(F)ccc4s3)[C@@H](c3ccccc3)C2)c1 [Example 568, (3R,4S)-N-[(5-fluoro-1-benzothiophen-2-yl)methyl]-1-[(1-methyl-1H-imidazol-4-yl)sulfonyl]-4-phenylpyrrolidin-3-amine]",≤ 0.1
14,"Cn1cnc(S(=O)(=O)N2C[C@H](NCc3cc(Cl)ccc3OC(F)F)[C@@H](c3ccccc3)C2)c1 [Example 569, (3R,4S)-N-[5-chloro-2-(difluoromethoxy)benzyl]-1-[(1-methyl-1H-imidazol-4-yl)sulfonyl]-4-phenylpyrrolidin-3-amine]",≤ 1
15,"Cn1cnc(S(=O)(=O)N2C[C@H](NCc3cc(Cl)sc3Cl)[C@@H](c3ccccc3)C2)c1 [Example 570, (3R,4S)-N-[(2,5-dichlorothiophen-3-yl)methyl]-1-[(1-methyl-1H-imidazol-4-yl)sulfonyl]-4-phenylpyrrolidin-3-amine]",≤ 0.01
16,"Cn1cnc(S(=O)(=O)N2C[C@H](NCc3cccnc3-c3ccc(F)cc3)[C@@H](c3ccccc3)C2)c1 [Example 571, (3R,4S)-N-{[2-(4-fluorophenyl)pyridin-3-yl]methyl}-1-[(1-methyl-1H-imidazol-4-yl)sulfonyl]-4-phenylpyrrolidin-3-amine]",≤ 10
17,"Cc1ccc(-c2ncc(CN[C@H]3CN(S(=O)(=O)c4cn(C)cn4)C[C@@H]3c3ccccc3)s2)cc1 [Example 572, (3R,4S)-1-[(1-methyl-1H-imidazol-4-yl)sulfonyl]-N-{[2-(4-methylphenyl)-1,3-thiazol-5-yl]methyl}-4-phenylpyrrolidin-3-amine]",≤ 1
18,"Cc1nc(N[C@H]2CN(S(=O)(=O)c3cn(C)cn3)C[C@@H]2c2ccccc2)nn1C [Example 575, 1,5-dimethyl-N-{(3R,4S)-1-[(1-methyl-1H-imidazol-4-yl)sulfonyl]-4-phenylpyrrolidin-3-yl}-1H-1,2,4-triazol-3-amine]",≤ 10
19,"CCOCCCNC(=O)[C@@H]1CN(S(=O)(=O)c2cn(C)cn2)C[C@H]1c1ccc(F)cc1 [Example 578, (3S,4R)-N-(3-ethoxypropyl)-4-(4-fluorophenyl)-1-[(1-methyl-1H-imidazol-4-yl)sulfonyl]pyrrolidine-3-carboxamide]",≤ 10
20,"COCCNC(=O)[C@@H]1CN(S(=O)(=O)c2cn(C)cn2)C[C@H]1c1ccc(F)cc1 [Example 579, (3S,4R)-4-(4-fluorophenyl)-N-(2-methoxyethyl)-1-[(1-methyl-1H-imidazol-4-yl)sulfonyl]pyrrolidine-3-carboxamide]",≤ 10
21,"CCCNC(=O)[C@@H]1CN(S(=O)(=O)c2cn(C)cn2)C[C@H]1c1ccc(F)cc1 [Example 580, (3S,4R)-4-(4-fluorophenyl)-1-[(1-methyl-1H-imidazol-4-yl)sulfonyl]-N-propylpyrrolidine-3-carboxamide]",≤ 1
22,"COCC(C)NC(=O)[C@@H]1CN(S(=O)(=O)c2cn(C)cn2)C[C@H]1c1ccc(F)cc1 (stereo partly drawn) [Example 582, (3S,4R)-4-(4-fluorophenyl)-N-[1-methoxypropan-2-yl]-1-[(1-methyl-1H-imidazol-4-yl)sulfonyl]pyrrolidine-3-carboxamide]",≤ 10
23,"COCCCNC(=O)[C@H]1CN(S(=O)(=O)c2cn(C)cn2)C[C@@H]1c1ccc(F)cc1 [Example 583, (3R,4S)-4-(4-fluorophenyl)-N-(3-methoxypropyl)-1-[(1-methyl-1H-imidazol-4-yl)sulfonyl]pyrrolidine-3-carboxamide]",≤ 10
24,"CCOCCNC(=O)[C@@H]1CN(S(=O)(=O)c2cn(C)cn2)C[C@H]1c1ccc(F)cc1 [Example 584, (3S,4R)-N-(2-ethoxyethyl)-4-(4-fluorophenyl)-1-[(1-methyl-1H-imidazol-4-yl)sulfonyl]pyrrolidine-3-carboxamide]",≤ 10
25,"Cn1cnc(S(=O)(=O)N2C[C@H](Nc3ccc(Cl)c(OC(F)(F)F)c3)[C@@H](c3ccc(F)cc3)C2)c1 [Example 585, (3R,4S)-N-[4-chloro-3-(trifluoromethoxy)phenyl]-4-(4-fluorophenyl)-1-[(1-methyl-1H-imidazol-4-yl)sulfonyl]pyrrolidin-3-amine]",≤ 0.1
26,"Cn1cnc(S(=O)(=O)N2C[C@@H](C(=O)NCC3CC3)[C@H](c3ccc(F)cc3)C2)c1 [Example 586, (3S,4R)-N-(cyclopropylmethyl)-4-(4-fluorophenyl)-1-[(1-methyl-1H-imidazol-4-yl)sulfonyl]pyrrolidine-3-carboxamide]",≤ 1
27,"CC(C)OCCNC(=O)[C@@H]1CN(S(=O)(=O)c2cn(C)cn2)C[C@H]1c1ccc(F)cc1 [Example 587, (3S,4R)-4-(4-fluorophenyl)-1-[(1-methyl-1H-imidazol-4-yl)sulfonyl]-N-[2-(propan-2-yloxy)ethyl]pyrrolidine-3-carboxamide]",≤ 10
28,"COCCCN[C@H]1CN(S(=O)(=O)c2cn(C)cn2)C[C@@H]1c1ccccc1 [Example 588, (3R,4S)-N-(3-methoxypropyl)-1-[(1-methyl-1H-imidazol-4-yl)sulfonyl]-4-phenylpyrrolidin-3-amine]",≤ 10
29,"CCOCCCN[C@H]1CN(S(=O)(=O)c2cn(C)cn2)C[C@@H]1c1ccccc1 [Example 589, (3R,4S)-N-(3-ethoxypropyl)-1-[(1-methyl-1H-imidazol-4-yl)sulfonyl]-4-phenylpyrrolidin-3-amine]",≤ 1
30,"COCC1(CN[C@H]2CN(S(=O)(=O)c3cn(C)cn3)C[C@@H]2c2ccccc2)CC1 [Example 590, (3R,4S)-N-{[1-(methoxymethyl)cyclopropyl]methyl}-1-[(1-methyl-1H-imidazol-4-yl)sulfonyl]-4-phenylpyrrolidin-3-amine]",≤ 10
